From PubChem BioAssay (NCI)
Several values for one entry are separate records, joined by “and”; a condition that tells them apart may be missing. Equal entries are not always repeated.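 Exposure lasted 48 hours, with cells grown in 96-well plates and compounds tested at five concentrations. Abbreviation: GI50, concentration required for 50% inhibition of growth. TGI marks complete inhibition of growth.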

Tests used:
Test in all cases: NCI tumour cell line growth inhibition, 48 h
SK-OV-3 ovarian = test system: SK-OV-3 ovarian
HCC-2998 colon = test system: HCC-2998 colon
A549 NSCLC = test system: A549 NSCLC
UACC-257 melanoma = test system: UACC-257 melanoma
SW-620 colon = test system: SW-620 colon
MCF7 breast = test system: MCF7 breast
U251 CNS = test system: U251 CNS
SK-MEL-28 melanoma = test system: SK-MEL-28 melanoma
RXF 393 renal = test system: RXF 393 renal
MDA-MB-435 = test system: MDA-MB-435

SMILES | GI50 (SK-OV-3 ovarian) | TGI (SK-OV-3 ovarian) | TGI (HCC-2998 colon) | GI50 (A549 NSCLC) | TGI (A549 NSCLC) | GI50 (UACC-257 melanoma) | TGI (UACC-257 melanoma) | GI50 (SW-620 colon) | TGI (SW-620 colon) | GI50 (MCF7 breast) | TGI (MCF7 breast) | TGI (U251 CNS) | GI50 (SK-MEL-28 melanoma) | TGI (SK-MEL-28 melanoma) | GI50 (RXF 393 renal) | TGI (RXF 393 renal) | GI50 (MDA-MB-435) | TGI (MDA-MB-435) | GI50 (U251 CNS) | GI50 (HCC-2998 colon)
CC(C)=CCC1=C(O)c2ccccc2C(=O)C1=O | > 100 µM and 47.7 µM | > 100 µM | > 100 µM | > 100 µM and 17.3 µM and 16.6 µM | > 100 µM | > 100 µM and 28.6 µM | > 100 µM | > 100 µM and 34.6 µM and 22.9 µM | > 100 µM | 21.8 µM | > 100 µM | > 100 µM | > 100 µM and 23 µM | > 100 µM | > 100 µM | > 100 µM | 21.8 µM | > 100 µM |  | 
NC(N)=Nc1nc2ccccc2o1 | > 100 µM | > 100 µM |  | > 100 µM | > 100 µM | 21.2 µM | > 100 µM | > 100 µM | > 100 µM | > 100 µM | > 100 µM | > 100 µM | > 100 µM | > 100 µM | > 100 µM | > 100 µM | > 100 µM | > 100 µM | > 100 µM | 
C[C@H](CCOc1cccc(CC(=O)O)c1)N(Cc1cccc(C(F)(F)F)c1Cl)CC(c1ccccc1)c1ccccc1 |  |  | 18 µM | 3.94 µM | 18.9 µM | 10.2 µM | 25.2 µM | 5.28 µM | 20.7 µM | 3.53 µM | 17.9 µM | 19.3 µM | 7.3 µM | 20.1 µM | 4.18 µM | 16.2 µM | 7.02 µM | 20.2 µM | 4.1 µM | 5.15 µM
COc1c(C)c(OCC=C(C)C)cc(CO)c1CO |  | > 100 µM | > 100 µM |  | > 100 µM |  | > 100 µM |  | > 100 µM |  | > 100 µM | > 100 µM |  |  |  | 78.2 µM |  | > 100 µM |  | 
Cc1nc2sccn2c1-c1nc2sccn2c1/C=C1/C(=O)Nc2ccccc21 | 2.4 µM | 15.4 µM | 29.8 µM | 3.95 µM | > 100 µM | 16.3 µM | 91.9 µM | 2.32 µM | 7.61 µM | 1.5 µM | 6.51 µM | 64.8 µM | 5.42 µM | 46.2 µM |  |  | 0.53 µM | 2.52 µM | 4.54 µM | 8.3 µM
CNc1nc(N)nc(Nc2ccc(I)cc2)c1N=O |  |  | > 100 µM |  | > 100 µM |  | > 100 µM |  | > 100 µM |  | > 100 µM |  |  | > 100 µM |  | > 100 µM |  | > 100 µM |  | 
CCCCCCCCSC1=C(Cl)C(=O)C(OC)=C(OC)C1=O |  | > 100 µM | 32.4 µM |  | 48.4 µM |  | 21.4 µM |  | 84 µM |  | 17.4 µM | 26.6 µM |  |  |  | 30.3 µM |  | 35.4 µM |  | 
COc1ccc(Cl)cc1NC(=O)c1ccc(NC2=C(Cl)C(=O)N(Cc3ccccc3)C2=O)cc1 |  |  | 28.8 µM | > 100 µM | > 100 µM | 94.1 µM | > 100 µM | 93 µM | > 100 µM | 5.92 µM | 34.3 µM | > 100 µM | > 100 µM | > 100 µM | 21.3 µM | 79.3 µM | 99.7 µM | > 100 µM | 28.3 µM | 14.1 µM
